According to the supplement of paper PMC10307832:

What was measured:
Experiment in all cases: relative viability (nuclei count vs DMSO), 5 days (fraction); higher = more cells survive
[1] = compound: COc1cc2c(Oc3ccc4[nH]c(C)cc4c3F)ncnc2cc1OCCCN1CCCC1 [Cediranib]
In short: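 Viability here means nuclei in treated wells divided by nuclei in vehicle wells, reported as the median across plates. Only plates with control CV below 25% and at least one doubling passed. Lung cancer cell lines in 1536-well plates were exposed to five √10-spaced library-drug doses for 5 days and counted from 4× Hoechst images in MetaXpress.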

[2] = compound: Nc1ncn([C@H]2C[C@H](O)[C@@H](CO)O2)c(=O)n1 [Decitabine] + C[C@]1(O)C[C@@H](c2nc(-c3ccc4ccc(-c5ccccc5)nc4c3)c3c(N)nccn32)C1 [Linsitinib] (partner 1 µM)
In short: (§1)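 Lung cancer cell lines, seeded in 1536-well plates, were treated the following day by pin tool with a single drug or with five library-drug doses (not always all listed) in √10 steps on top of a fixed anchor-drug dose. Cells were fixed and nuclei stained in one step after 5 days, and nuclei were counted. Relative viability is the nuclei count for treated wells divided by that for vehicle wells, reported as medians of duplicate plates.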

[3] = compound: O=C(C[C@H]1NCCC[C@@H]1O)Cn1cnc2cc(Br)c(Cl)cc2c1=O (racemic) [Halofuginone] + NC(=O)Nc1cc(-c2cccc(F)c2)sc1C(=O)N[C@H]1CCCNC1 [AZD7762] (partner 0.2 µM)
In short: as §1

[4] = compound: Nc1ncn([C@H]2C[C@H](O)[C@@H](CO)O2)c(=O)n1 [Decitabine] + CS(=O)(=O)N1CCN(Cc2cc3nc(-c4cccc5[nH]ncc45)nc(N4CCOCC4)c3s2)CC1 [Pictilisib] (partner 1 µM)
In short: as §1

Cell Line | relative viability ([1]; 0.04 µM) | relative viability ([1]; 0.1265 µM) | relative viability ([1]; 0.4 µM) | relative viability ([1]; 1.265 µM) | relative viability ([1]; 4 µM) | relative viability ([2]; first compound 0.04 µM) | relative viability ([2]; first compound 0.1265 µM) | relative viability ([2]; first compound 0.4 µM) | relative viability ([2]; first compound 1.265 µM) | relative viability ([2]; first compound 4 µM) | relative viability ([3]; first compound 0.001 µM) | relative viability ([3]; first compound 0.003162 µM) | relative viability ([3]; first compound 0.01 µM) | relative viability ([3]; first compound 0.03162 µM) | relative viability ([3]; first compound 0.1 µM) | relative viability ([4]; first compound 0.04 µM) | relative viability ([4]; first compound 0.1265 µM) | relative viability ([4]; first compound 0.4 µM) | relative viability ([4]; first compound 1.265 µM) | relative viability ([4]; first compound 4 µM)
NCI-H1703 | 0.819 | 0.677 | 0.471 | 0.363 | 0.393 | 0.546 | 0.553 | 0.226 | 0.242 | 0.201 | 0.119 | 0.121 | 0.121 | 0.13 | 0.151 | 0.29 | 0.258 | 0.196 | 0.234 | 0.181
NCI-H1944 | 0.93 | 0.955 | 0.918 | 0.883 | 0.936 | 1.06 | 0.962 | 0.934 | 0.667 | 0.642 | 0.524 | 0.446 | 0.544 | 0.669 | 0.381 | 0.353 | 0.424 | 0.369 | 0.319 | 0.299
HCC-78 | 0.963 | 1.05 | 0.965 | 1.03 | 1 | 0.538 | 0.545 | 0.407 | 0.371 | 0.319 | 0.657 | 0.672 | 0.55 | 0.652 | 0.643 | 0.233 | 0.241 | 0.229 | 0.21 | 0.228
PC-3 [JPC-3] | 0.921 | 0.959 | 0.933 | 1.09 | 0.973 |  | 0.8 | 0.676 | 0.64 | 0.607 | 0.881 | 0.933 | 0.669 | 0.783 | 0.499 |  | 0.733 | 0.434 | 0.609 | 0.646
LCLC-103H | 1.07 | 1.03 | 0.952 | 1.06 | 1.06 | 1.06 | 1.13 | 1.12 | 0.882 | 0.888 | 0.808 | 0.851 | 0.784 | 0.793 | 0.695 | 0.638 | 0.669 | 0.526 | 0.655 | 0.647
EKVX | 1.05 | 0.929 | 0.888 | 0.844 | 1.03 | 0.792 | 0.854 | 0.657 | 0.386 | 0.306 | 0.721 | 0.615 | 0.692 | 0.784 | 0.496 | 0.37 | 0.387 | 0.391 | 0.252 | 0.241
NCI-H460 | 1.02 | 0.98 | 0.957 | 0.984 | 1.05 | 0.651 | 0.855 | 0.669 | 0.168 | 0.114 | 0.725 | 0.601 | 0.673 | 0.605 | 0.305 | 0.389 | 0.549 | 0.524 | 0.373 | 0.334
NCI-H727 | 0.631 | 0.824 | 0.906 | 0.935 | 0.989 | 0.303 | 0.232 | 0.302 | 0.282 | 0.234 | 0.777 | 0.551 | 0.72 | 0.677 | 0.634 | 0.272 | 0.353 | 0.316 | 0.418 | 0.257
NCI-H838 | 1.02 | 0.965 | 0.916 | 0.827 | 1.06 | 0.798 | 0.561 | 0.333 | 0.318 | 0.264 | 1.02 | 0.799 | 0.933 | 0.876 | 0.751 | 0.415 | 0.357 | 0.308 | 0.24 | 0.226
NCI-H1792 | 0.862 | 0.846 | 0.84 | 0.931 | 0.795 | 0.643 | 0.568 | 0.531 | 0.378 | 0.333 | 0.684 | 0.722 | 0.585 | 0.541 | 0.234 | 0.303 | 0.243 | 0.34 | 0.235 | 0.197
H3255 | 1.1 | 0.859 | 0.964 | 0.938 | 0.986 | 0.488 | 0.88 | 0.551 | 0.554 | 0.468 | 1.05 | 0.777 | 0.871 | 0.844 | 0.876 | 0.189 | 0.462 | 0.342 | 0.331 | 0.358
EPLC-272H | 0.77 |  | 0.915 | 0.792 | 0.975 | 0.811 | 0.939 |  | 0.596 | 0.548 | 0.208 | 0.0783 | 0.216 | 0.215 | 0.19 | 0.277 | 0.303 |  | 0.271 | 0.321
NCI-H647 | 1.06 | 0.911 | 0.831 | 0.895 | 1.01 | 0.989 | 0.874 | 0.759 | 0.234 | 0.237 | 0.489 | 0.451 | 0.52 | 0.388 | 0.416 | 0.504 | 0.566 | 0.42 | 0.191 | 0.214
LXF-289 | 1.06 | 0.778 | 0.928 | 1.01 | 1.03 | 0.893 | 0.674 | 0.566 | 0.372 | 0.395 | 1.08 | 1.17 | 1.02 | 1.12 | 1.01 | 0.75 | 0.808 | 0.471 | 0.4 | 0.317
NCI-H1755 | 1.1 | 0.861 | 0.954 | 1.05 | 1.01 | 0.936 | 0.948 | 0.915 | 0.688 | 0.429 | 0.442 | 0.407 | 0.469 | 0.399 | 0.303 | 0.385 | 0.411 | 0.291 | 0.365 | 0.343
HCC-15 | 1.03 |  | 0.948 | 1.08 | 1 | 0.777 | 0.772 | 0.562 | 0.51 | 0.434 | 1.19 | 1.26 | 1 | 1.18 | 1.2 | 0.742 | 0.767 | 0.288 | 0.484 | 0.411
EMC-BAC-2 | 0.957 | 0.753 | 0.913 | 0.933 | 1.09 | 0.797 | 0.81 | 0.652 | 0.612 | 0.583 | 1.17 | 1.2 | 1.06 | 1.12 | 0.842 | 0.529 | 0.557 | 0.468 | 0.411 | 0.37
NCI-H1734 | 0.897 | 0.951 | 0.96 | 0.821 | 1.09 | 0.739 | 0.691 | 0.698 | 0.459 | 0.348 | 0.558 | 0.619 | 0.52 | 0.576 | 0.269 | 0.442 | 0.453 | 0.443 | 0.342 | 0.312
NCI-H1395 | 0.885 | 0.832 | 0.887 | 0.884 | 0.993 | 0.768 | 0.938 | 0.597 | 0.63 | 0.509 | 0.385 | 0.39 | 0.372 | 0.385 | 0.41 | 0.57 | 0.579 | 0.522 | 0.417 | 0.458
HOP-62 | 1.07 | 0.695 | 0.892 | 0.983 | 1.08 | 0.617 | 0.307 | 0.159 | 0.138 | 1.05 | 0.573 | 0.676 | 0.47 | 0.599 | 0.327 | 0.668 | 0.585 | 0.239 | 0.159 | 0.162
LK-2 | 1.03 | 0.86 | 0.909 | 0.965 | 0.821 | 0.462 | 0.637 | 0.509 | 0.502 | 0.387 | 0.583 | 0.432 | 0.487 | 0.491 | 0.281 |  | 0.607 | 0.505 | 0.401 | 0.396
NCI-H23 | 0.882 | 0.75 | 0.847 | 0.844 | 1 | 0.571 | 0.381 | 0.252 | 0.215 | 0.229 | 0.32 | 0.184 | 0.223 | 0.233 | 0.246 | 0.528 | 0.59 | 0.281 | 0.266 | 0.196
NCI-H1355 | 0.944 | 1.04 | 0.898 | 0.944 | 1.06 | 0.663 | 0.622 | 0.52 | 0.348 | 0.827 | 0.801 | 0.81 | 0.688 | 0.73 | 0.616 | 0.529 | 0.44 | 0.293 | 0.254 | 0.23
A-427 | 1.01 |  | 0.951 | 0.943 | 1.07 | 0.807 | 0.674 | 0.446 | 0.368 | 0.275 | 0.729 | 0.806 | 0.805 | 0.77 | 0.497 | 0.42 | 0.663 | 0.244 | 0.359 | 0.219
NCI-H1793 | 0.786 | 0.891 | 0.704 |  | 0.978 | 0.848 | 0.947 | 0.854 | 0.5 | 0.434 | 0.461 | 0.593 | 0.508 | 0.394 | 0.549 | 0.308 | 0.351 | 0.245 | 0.302 | 0.224
NCI-H596 | 1.06 | 0.959 | 0.935 | 0.907 | 1.1 | 1.07 | 0.983 | 0.885 | 0.826 | 0.839 | 1.19 | 1.18 | 1.1 | 0.95 | 0.722 | 0.38 | 0.416 | 0.304 | 0.358 | 0.633
LU99A | 0.982 |  | 0.976 | 0.845 | 0.985 | 0.45 | 0.584 | 0.603 | 0.442 | 0.374 | 0.323 | 0.347 | 0.384 | 0.327 | 0.346 | 0.369 | 0.325 | 0.355 | 0.308 | 0.311
